Type in all cases: cell-based, human
One test concerns NCI-H146. Description: MTT proliferation assay, SCLC cell line NCI-H146 (chemotherapeutic agents with or without AAV-2 infection). The following applies: for Sensitization factor (A/Ao)* 10^4 Ip.AAV/Cell: AAV-2 infection 10^4 per cell vs mock infection. (Tetrazolium assays rely on reduction of a dye to a coloured formazan, in cell work by metabolically active cells.)
The next test has as its system NCI-H209. Briefly: MTT proliferation assay, SCLC cell line NCI-H209 (chemotherapeutic agents with or without AAV-2 infection). The note with it: for Sensitization factor (A/Ao)* 10^4 Ip.AAV/Cell: AAV-2 infection 10^4 per cell vs mock infection. The method, then: (§1) Small cell lung carcinoma cell lines (NCI-H69, NCI-H164, NCI-H209, and NCI-H446) (Cancer Res., 1980, 40, 3502-3507; Cancer Res., 1985, 45, 2913-2923) were cultured in RPMI-1640 medium (Eurobio, Raunheim, Germany). HeLa cells were cultured in DMEN (Eurobio, Raunheim, Germany). All growth media were supplemented with glutamine (Eurobio, 1%), antibiotics (penicillin and streptomycin) and 10% heat-inactivated fetal calf serum (PAA; Liz, Austria). The cultures were incubated at 37° C. in a damp atmosphere with 5% CO2 and tested for mycoplasma contaminations at regular intervals.
(§2) The adeno-associated virus type 2 (AAV-2) was replicated in HeLa cells using, adenovirus type 2 (Ad-2) as a helper. AAV was purified in a cesium-chloride gradient and titrated as described in J. Gen. Virol., 1994, 74, 2655-2662. The adenovirus type 2 inocula were clarified supernatants of Ad-2-infected HeLa cells.
(§3) The SCLC cells were suspended in PBS and incubated with purified AAV-2 in the indicated multiplicities of infection (MOI). […]
(§4) The proliferation of the SLCL cells after the infection with AAV-2 and/or treatment with chemotherapeutic agents was determined by the modified MTT test (J. Immunol. Methods, 1983, 56, 55-63). […] The precipitated proteins were pelleted by centrifugation (1000 rpm, 15 min), and 200 ul samples of the supernatant were measured to determine the optical density at 540 nm (OD540), OD690 being used as a reference and a Titertek Multiskan plus MKII densitometer being employed (Lab Systems, Finland).
(§5) The relative proliferation (A/Ao) was defined as the ratio of the absorption (A) measured in the supernatant of AAV-2-infected and/or pharmacon-treated cells, compared with the absorption measured for the supernatant of the mock-infected cells and untreated control cells (Ao). […]
(§6) The AAV-2-infected cells (MOI values as indicated) or mock-infected cells were placed in plates having 24 wells and treated with cisplatin. After six or eight days, the relative proliferation was determined. […]

The subject of the next test is NCI-H69. Briefly: MTT proliferation assay, SCLC cell line NCI-H69 (chemotherapeutic agents with or without AAV-2 infection). The following applies: AAV-2 infection 10^4 per cell vs mock infection. On the procedure:
as §1
The adeno-associated virus type 2 (AAV-2) was replicated in HeLa cells using, adenovirus type 2 (Ad-2) as a helper. […]
The proliferation of the SLCL cells after the infection with AAV-2 and/or treatment with chemotherapeutic agents was determined by the modified MTT test (J. Immunol. Methods, 1983, 56, 55-63). […] The precipitated proteins were pelleted by centrifugation (1000 rpm, 15 min), and 200 ul samples of the supernatant were measured to determine the optical density at 540 nm (OD540), OD690 being used as a reference and a Titertek Multiskan plus MKII densitometer being employed (Lab Systems, Finland). […]
as §6

Another test has as its system NCI-H446. Description: MTT proliferation assay, SCLC cell line NCI-H446 (chemotherapeutic agents with or without AAV-2 infection). The following applies: for Sensitization factor (A/Ao)* 10^4 Ip.AAV/Cell: AAV-2 infection 10^4 per cell vs mock infection. On the procedure: as §1, §2, §3, §4, §5, §6
[1] abbreviates: cells treated only with cisplatin at IC50.

The text below walks through data of US6743423B1, “Use of adeno-associated viruses for decreasing the radiotherapy-induced or chemotherapy- induced resistance in cancer patients” (Deutsches Krebsforschungszentrum Stiftung des Offentlichen …, priority 1998, dated 2004).

On to `N.N.[Cl][Pt][Cl]` [Cisplatin, cisplatin], for which the “Sensitization factor (A/Ao)* 10^4 Ip.AAV/Cell” value with NCI-H146 is reported as 1.37; in the test with NCI-H209 it was 2.33; in the test with NCI-H69, 1.43; in the test with NCI-H446, 2.50. For the same molecule, the entries for the “Relative proliferation (A/Ao)” value in the test on NCI-H209 (setting [1]) and in the test on NCI-H446 (setting [1]) were 0.5 and 0.59, respectively.

As to `COc1cc([C@@H]2c3cc4c(cc3[C@@H](O[C@@H]3O[C@@H]5CO[C@@H](C)O[C@H]5[C@H](O)[C@H]3O)[C@H]3COC(=O)[C@H]23)OCO4)cc(OC)c1O` [Etoposide, etoposide], the “Resistance/susceptibility of the cell line to the agent” value in the test with NCI-H146 is given as “highly susceptible”. Also, the “Sensitization factor (A/Ao)* 10^4 Ip.AAV/Cell” value with NCI-H146 was determined as 1.38; with NCI-H209 it was 2.12; in the test with NCI-H69, 1.30; with NCI-H446, 3.00.
